Source: US10688116B2, “Treatment of metabolic disorders in equine animals” (Boehringer Ingelheim Vetmedica GmbH, priority 2014, dated 2020)

Assay: Physicochemical properties of the crystalline complex

## N#Cc1ccc([C@@H]2O[C@H](CO)[C@@H](O)[C@H](O)[C@H]2O)cc1Cc1ccc(C2CC2)cc1.O=C(O)[C@@H]1CCCN1 [crystalline complex]
  tendency to absorb moisture: does not show a high tendency to absorb moisture
Various environmental conditions and during production of a medicament
  physical and chemical stability: high physical and chemical stability
